This note sets out measurements from PMC6028838, “A new terpene coumarin microbial transformed by Mucor polymorphosporus induces apoptosis of human gastric cancer cell line MGC-803” (Archives of Pharmacal Research, 2018).

For data set [1], the system named is human gastric cancer cell line MGC-803. In words: MTT antiproliferation assay, MGC-803 cells. Format: cell-based. The conditions noted are these: 48 h incubation, mean ± SD of triplicate experiments. On the procedure: (§1) The human gastric cancer cell line MGC-803 and human normal gastric epithelial cell line GES-1 were cultured in DMEM containing penicillin (100 U/mL), streptomycin (100 μg/mL), and 10% FBS at 37 °C with 5% CO2. Cells that used in experiments were passaged at least three times.
(§2) Cells were seeded in 96-well plates at a density of 5 × 10^4/well and cultured at 37 °C with 5% CO2 for 24 h. And then, compounds (1–5) in various concentrations were introduced with incubation for another 48 h. Finally, 10 μL MTT (5 mg/mL) was added to each well. After 4 h incubation, the medium was removed and 150 μL DMSO was added. Absorbance was read on a Microplate Reader at 570 nm (Bio Tek, Thenceforth, USA) (Li et al. [2014]). The MTT assay aims to evaluate the antiproliferative effects of the test compounds in MGC-803 cells and the cytotoxic effects in GES-1 cells.
For orientation: Formazan colour is commonly taken as a measure of viable cells.

In data set [2] the test system is human normal gastric epithelial cell line GES-1. The data set is described as follows: MTT cytotoxicity assay, GES-1 cells. The conditions noted are these: GES1, 48 h incubation, mean ± SD of triplicate experiments. The data set is classed as cell-based. How it is done:
as §1, §2

The subject of the next data set is MGC-803 cells. In words: Annexin V-FITC/PI apoptosis assay by flow cytometry. Format: cell-based, human. The conditions noted are these: MGC-803 cells, 1.0, 2.0, 4.0 μM, 24 h, compared with the control group. On the procedure: The apoptosis effect of 2′-Z auraptene A (2) in MGC-803 cells was examined using the Annexin V-FITC/PI detection kit, according to the description of previously reported (Bakar et al. [2016]). Briefly, cells were seeded and treated with compound 2 (0, 1.0, 2.0, 4.0 μM) for 24 h. Cells were harvested and washed twice with cold PBS before incubating with annexin V and PI for 30 min in dark. And then the stained cells were detected and analyzed on FACS Calibur flow cytometry.

For data set [3], the system named is Bax, Bcl-2 and cleaved caspase-3 in MGC-803 cells. The data set is described as follows: Western blot of apoptosis-related proteins. Format: cell-based, human. The conditions noted are these: MGC-803 cells, 1.0, 2.0, 4.0 μM, 24 h. How it is done: The detection of levels of apotosis-related proteins in MGC-803 cells was performed according to the reported western blot method (Zhang et al. [2015a]). Briefly, cells were treated with compound 2 (0, 1.0, 2.0, 4.0 μM) for 24 h and then harvested to detect the protein concentration using the BCA method. Total cellular protein was separated by an SDS/PAGE gel and transferred onto PVDF membranes using a semidry electroblotter. The membrane was blocked with non-fat milk solution (5%) for 1 h, and incubated subsequently with primary antibody at 4 °C overnight. Then TBST was used to wash the primary antibody and incubated with secondary antibody for 1 h at room temperature. Protein bands were visualized by enhanced chemiluminescence (ECL) and β-actin was used as a normalizing control.
(In western blotting, separated proteins are transferred to a membrane and probed.)

Data set [4] is described as follows: Solubility in aqueous media. Format: physicochemical. The conditions noted are these: thermodynamic equilibrating conditions, compared with 2′-Z auraptene.

Molecules are shown by their SMILES.

One may read the IC50 as the concentration that gives 50% inhibition. Read a high IC50 as weaker potency in that assay. As to `CC(C)=CCC/C(C)=C\COc1ccc2ccc(=O)oc2c1` [Compound 1, (Z)-7-((3′,7′-dimethylocta-2′,6′-dien-1′-yl)oxy)-2H-chromen-2-one], the figures for the IC50 in data set [1] and in data set [2] were 10.4 ± 0.86 µM and 57 ± 2.31 µM, respectively.
`C/C(=C/COc1ccc2ccc(=O)oc2c1)CCCO` [Compound 2, 2′-Z auraptene A] showed an IC50 in data set [1] of 0.78 ± 0.13 µM. In data set [2], this compound registered a half-maximal inhibitory concentration (IC50) of 46 ± 3.11 µM. Also, the cellular apoptotic rates result in the data set on MGC-803 cells was “increased significantly in a dose-dependent manner”. In data set [3], the “level of Bax protein” value was “increase”, the “level of Bcl-2 protein” value is “reduction” and the “level of cleaved caspase-3 protein” value is reported as “increase”. For the same compound, in data set [4], the “limitation of solubility in aqueous media” value was “improved”.
`C/C(=C/CC/C(C)=C\COc1ccc2ccc(=O)oc2c1)CO` [Compound 3, 7-(((2′Z,6′Z)-9′-hydroxy-3′,7′-dimethylocta-2′,6′-dien-1′-yl)oxy)-2H-chromen-2-one]: the IC50 in data set [1] came out at 4.75 ± 1.02 µM; in data set [2], 25.6 ± 2.12 µM.
For `C/C(=C/CC(O)/C(C)=C\COc1ccc2ccc(=O)oc2c1)CO` (stereo not drawn) [Compound 4, 7-(((2′Z,6′Z)-4′,9′-hydroxy-3′,7′-dimethylocta-2′,6′-dien-1′-yl)oxy)-2H-chromen-2-one], in that order: 6.78 ± 2.06 µM and 33.8 ± 1.46 µM.
For `C/C(=C/C(O)C/C(C)=C\COc1ccc2ccc(=O)oc2c1)CO` (stereo not drawn) [Compound 5, 7-(((2′Z,6′Z)-5′,9′-hydroxy-3′,7′-dimethylocta-2′,6′-dien-1′-yl)oxy)-2H-chromen-2-one], in that order: 10.8 ± 1.83 µM and 35.5 ± 2.21 µM.
